Reference: ChEMBL document CHEMBL5331107 (J Med Chem, 2023)

Columns and labels:
[1] = target: Human immunodeficiency virus type 1 reverse transcriptase (Human immunodeficiency virus 1, UniProt Q72547); assay: Inhibition of HIV-1 reverse transcriptase assessed as assessed as reduction of biotin-dUTP incorporation into […] incubated for 1 hrs by ELISA analysis
[2] = system: Human immunodeficiency virus 1; assay: Antiviral activity against NNRTI-resistant HIV-1 harboring L100I mutant infected in human MT4 cells assessed as protection against virus-induced cytopathic effect incubated for 5 days by MTT assay; format: functional, organism-based; settings: Human immunodeficiency virus 1, MT4, 120 h
[3] = system: Human immunodeficiency virus 1; format: functional, organism-based; settings: Human immunodeficiency virus 1, MT4, 120 h
in vitro [4] = settings: human, MT4 cells
Description: Selectivity index, ratio of CC50 for cytotoxicity against human MT4 cells to EC50 for antiviral activity against NNRTI-resistant HIV-1 harboring Y181C mutant infected in human MT4 cells

[5] = system: Human immunodeficiency virus 1; assay: Antiviral activity against NNRTI-resistant HIV-1 harboring F227L and V106A double mutant infected in human MT4 cells assessed as protection against virus-induced cytopathic effect incubated for 5 days by MTT assay; format: functional, organism-based; settings: Human immunodeficiency virus 1, MT4, 120 h
[6] = Cytotoxicity against human MT4 cells assessed as reduction in cell viability incubated for 5 days by MTT assay; format: toxicity, cell-based; settings: time 5 day
in vitro [7] = settings: human, MT4 cells; remark: listed apart in the source
Description: Selectivity index, ratio of CC50 for cytotoxicity against human MT4 cells to EC50 for antiviral activity against NNRTI-resistant HIV-1 harboring E138K mutant infected in human MT4 cells

in vitro [8] = settings: human, MT4 cells; remark: listed apart in the source
Description: Selectivity index, ratio of CC50 for cytotoxicity against human MT4 cells to EC50 for antiviral activity against wildtype HIV-1 IIIB infected in human MT4 cells

[9] = system: Human immunodeficiency virus 1; format: functional, organism-based; settings: Human immunodeficiency virus 1, MT4, 120 h; remark: listed apart in the source
in vitro [10] = settings: human, MT4 cells; remark: listed apart in the source
Description: Selectivity index, ratio of CC50 for cytotoxicity against human MT4 cells to EC50 for antiviral activity against NNRTI-resistant HIV-1 harboring K103N and Y181C mutant infected in human MT4 cells

in vitro [11] = settings: human, MT4 cells; remark: listed apart in the source
Description: Selectivity index, ratio of CC50 for cytotoxicity against human MT4 cells to EC50 for antiviral activity against NNRTI-resistant HIV-1 harboring Y188L mutant infected in human MT4 cells

[12] = system: Human immunodeficiency virus 1; assay: Antiviral activity against NNRTI-resistant HIV-1 harboring K103N mutant infected in human MT4 cells assessed as protection against virus-induced cytopathic effect incubated for 5 days by MTT assay; format: functional, organism-based; settings: Human immunodeficiency virus 1, MT4, 120 h
[13] = system: Human immunodeficiency virus 1; format: functional, organism-based; settings: Human immunodeficiency virus 1, MT4, 120 h; remark: listed apart in the source
[14] = system: Human immunodeficiency virus 1; assay: Antiviral activity against NNRTI-resistant HIV-1 harboring E138K mutant infected in human MT4 cells assessed as protection against virus-induced cytopathic effect incubated for 5 days by MTT assay; format: functional, organism-based; settings: Human immunodeficiency virus 1, MT4, 120 h
in vitro [15] = settings: human, MT4 cells; remark: listed apart in the source
Description: Selectivity index, ratio of CC50 for cytotoxicity against human MT4 cells to EC50 for antiviral activity against NNRTI-resistant HIV-1 harboring K103N mutant infected in human MT4 cells

in vitro [16] = settings: human, MT4 cells; remark: listed apart in the source
Description: Selectivity index, ratio of CC50 for cytotoxicity against human MT4 cells to EC50 for antiviral activity against NNRTI-resistant HIV-1 harboring L100I mutant infected in human MT4 cells

[17] = system: Human immunodeficiency virus 1; assay: microbe, parasite or virus in culture; settings: Human immunodeficiency virus 1, IIIB, MT4, 120 h
Description: Antiviral activity against wild type HIV-1 IIIB infected in human MT4 cells assessed as protection against virus-induced cytopathic effect incubated for 5 days by MTT assay

in vitro [18] = settings: human, MT4 cells; remark: listed apart in the source
Description: Selectivity index, ratio of CC50 for cytotoxicity against human MT4 cells to EC50 for antiviral activity against NNRTI-resistant HIV-1 harboring F227L and V106A mutant infected in human MT4 cells

| SMILES | IC50 [1] | EC50 [2] | EC50 [3] | selectivity ratio (in vitro [4]) | EC50 [5] | CC50 at 120 h [6] | selectivity ratio (in vitro [7]) | selectivity ratio (in vitro [8]) | EC50 [9] | selectivity ratio (in vitro [10]) | selectivity ratio (in vitro [11]) | EC50 [12] | EC50 [13] | EC50 [14] | selectivity ratio (in vitro [15]) | selectivity ratio (in vitro [16]) | EC50 [17] | selectivity ratio (in vitro [18]) |
| --- | --- | --- | --- | --- | --- | --- | --- | --- | --- | --- | --- | --- | --- | --- | --- | --- | --- | --- |
| Cc1cc(C#N)cc(C)c1Oc1nc(Nc2ccc(C#N)cc2)nc2c1CN(Cc1ccc(S(C)(=O)=O)cc1)CC2 | 234 nM | 160 nM | 36.6 nM | > 5360 | 234 nM | > 221000 nM | > 5110 | > 25400 | 41.3 nM | > 1880 | > 6050 | 8.72 nM | 118 nM | 43.3 nM | > 25400 | > 1380 | 8.7 nM | > 944 |
| C=CC(=O)N1CCc2nc(Nc3ccc(C#N)cc3)nc(Oc3c(C)cc(C#N)cc3C)c2C1 | 71 nM | 44.2 nM | 50.7 nM | 235 | 134 nM | 11100 nM | 246 | 1370 | 47.4 nM | 81 | 220 | 11.7 nM | 138 nM | 45.3 nM | 956 | 252 | 8.12 nM | 83 |
| COc1cccc(C(=O)N2CCc3nc(Nc4ccc(C#N)cc4)nc(Oc4c(C)cc(C#N)cc4C)c3C2)c1 | 180 nM |  |  |  |  | 4780 nM | 144 | 653 |  |  |  | 8.01 nM |  | 33.3 nM | 597 |  | 7.32 nM |  |
| COc1ccc(C(=O)N2CCc3nc(Nc4ccc(C#N)cc4)nc(Oc4c(C)cc(C#N)cc4C)c3C2)cc1 | 211 nM |  |  |  |  | 32400 nM | 682 | 4800 |  |  |  | 9.56 nM |  | 47.5 nM | 3390 |  | 6.76 nM |  |
| Cc1cc(C#N)cc(C)c1Oc1nc(Nc2ccc(C#N)cc2)nc2c1CN(Cc1ccc(S(N)(=O)=O)cc1)CC2 | 126 nM | 72.6 nM | 31.8 nM | > 6430 | 135 nM | > 221000 nM | > 5570 | > 33400 | 34.4 nM | > 2460 | > 6940 | 7.56 nM | 89.9 nM | 39.7 nM | > 29200 | > 3040 | 6.62 nM | > 1640 |
| Cc1cc(C#N)cc(C)c1Oc1nc(Nc2ccc(C#N)cc2)nc2c1CN(C(=O)c1cccc(C(F)(F)F)c1)CC2 | 313 nM |  |  |  |  | > 220000 nM | > 1450 | > 7930 |  |  |  | 36.1 nM |  | 152 nM | > 6090 |  | 27.7 nM |  |
| Cc1cc(C#N)cc(C)c1Oc1nc(Nc2ccc(C#N)cc2)nc2c1CN(Cc1ccccc1)CC2 | 225 nM |  |  |  |  | 52100 nM | 507 | 2740 |  |  |  | 27.6 nM |  | 103 nM | 1890 |  | 19.1 nM |  |
| Cc1ccc(C(=O)N2CCc3nc(Nc4ccc(C#N)cc4)nc(Oc4c(C)cc(C#N)cc4C)c3C2)cc1 | 236 nM | 94.6 nM | 50.5 nM | > 4890 | 314 nM | > 243000 nM | > 10300 | > 34300 | 49.7 nM | > 1340 | > 4810 | 7.14 nM | 182 nM | 23.5 nM | > 34000 | > 2570 | 7.08 nM | > 774 |
| COC(=O)c1ccc(C(=O)N2CCc3nc(Nc4ccc(C#N)cc4)nc(Oc4c(C)cc(C#N)cc4C)c3C2)cc1 | 237 nM |  |  |  |  | > 224000 nM | > 817 | > 10600 |  |  |  | 45.8 nM |  | 274 nM | > 4890 |  | 21.1 nM |  |
| Cc1cc(C#N)cc(C)c1Oc1nc(Nc2ccc(C#N)cc2)nc2c1CN(C(=O)c1cccc(F)c1)CC2 | 207 nM |  |  |  |  | 5020 nM | 152 | 551 |  |  |  | 9.5 nM |  | 33 nM | 529 |  | 9.12 nM |  |
| Cc1cc(C#N)cc(C)c1Oc1nc(Nc2ccc(C#N)cc2)nc2c1CN(C(=O)c1cccc(C#N)c1)CC2 | 161 nM |  |  |  |  | > 238000 nM | > 5950 | > 30600 |  |  |  | 10.4 nM |  | 40 nM | > 22800 |  | 7.77 nM |  |
